Tests used:
wildtype TRKA protein = biological target: T1, wildtype TRKA protein (Homo sapiens, UniProt P04629); assay: Wildtype TRKA protein levels in HEL erythroleukemia cells (Western blot); format: cell-based
T1 construct: wildtype TRKA protein expressed by HEL cells; endogenous in cells; host or cells: HEL erythroleukemia cells
Description: KM12 or HEL cells were treated with a dose range of compound TR-123 or TR-123-negative. The latter lost binding to cereblon (CRBN) due to a chemical modification.
KM12 or HEL cells were treated with a single dose of compound TR-123 or combination with MG-132, Bortezomib, MLN4924 or Pomalidomide.
HEL cells were treated with heterobifunctional compounds at 10 nM or 100 nM for 16 hours.
KM12, H358, HEL, SU-DHL-1 and other cells were cultured at 37° C. with 5% CO2 in RPMI 1640 Medium supplemented with 10% fetal bovine serum. Cells were authenticated using the short tandem repeat (STR) assays. Mycoplasma test results were negative. Stable cell lines were established by lentivirus transduction, selected and maintained in medium containing 1 μg/mL puromycin (Beyotime Biotechnology).
Cultured cells were washed with cold PBS once and lysed in cold RIPA buffer supplemented with protease inhibitors and phosphatase inhibitors (Beyotime Biotechnology). The solutions were then incubated at 4° C. for 30 minutes with gentle agitation to fully lyse cells. For tumor tissues, tumors were cut into small pieces, milled with cold RIPA buffer using a mechanical homogenizer and lysed for 1 hour at 4° C. Cell lysates were centrifuged at 13,000 rpm for 10 minutes at 4° C. and pellets were discarded. Total protein concentrations in the lysates were determined by BCA assays (Beyotime Biotechnology). Cell lysates were mixed with Laemmli loading buffer to 1× and heated at 99° C. for 5 min. Proteins were resolved on SDS-PAGE and visualized by chemiluminescence. Images were taken by a ChemiDoc MP Imaging system (Bio-Rad). Protein bands were quantitated using the software provided by Bio-Rad.

[1] = Mouse pharmacokinetic (PK) studies, plasma concentrations; format: in vivo, mice; settings: for bioavailability: mouse, plasma, oral, male ICR mice, single dose 10 mg/kg orally or 1 mg/kg intravenously (FIG. 23A)
Description: A single […] intraperitoneal injection of compound TR-123 was evaluated. Plasma concentrations of TR-123 reported at each of the 6 time points (30 min, 1 h, […], 4 h, 8 h, and 12 h post compound administration) are the average values from 3 test animals.
A single 2 mg/kg intravenous injection and 20 mg/kg oral gavage of TR-198 were evaluated in mice. Plasma concentrations of TR-198 reported at each of the 6 time points (5 min, 30 min, 2 h, 4 h, 8 h, and 12 h post compound administration via IV, 30 min, 1 h, 2 h, 4 h, 8 h, and 12 h post compound administration via p.o.) are the average values from 3 test animals.
Plasma concentrations of TR-231 and TR-275 were determined following a single dose of 10 mg/kg orally or 1 mg/kg intravenously in male ICR mice (FIG. 23A). Plasma concentrations of TR-231 or TR-275 are examined at indicated different time points post compound administration. The reported values are the average values from 3 test animals.
Standard PK studies were conducted using male Swiss Albino mice by Sai Life Sciences or using male ICR mice by Cullgen. Plasma exposures of TR-123 (10 mg/kg, intraperitoneal injection), TR-198 (20 mg/kg, oral gavage, or 2 mg/kg, intravenous injection), TR-231 and TR-275 (10 mg/kg, oral gavage, or 1 mg/kg, intravenous injection) were determined. Plasma concentrations were reported at indicated time points as the average values derived from three experimental animals. Error bars represent standard deviations.

TPM3-TRKA fusion protein = biological target: T2, TPM3-TRKA fusion protein (Homo sapiens, UniProt P04629); assay: TPM3-TRKA fusion protein levels in KM12 cells (Western blot); format: cell-based; settings: for percent degradation of TPM3-TRKA protein at 0.01 µM: 16 h, TPM3-TRKA degradation in KM12 cells at 10 nM compound, category of percentage degradation, read-out: Degradation (at 10 nM)
T2 construct: The resulted chimeric proteins always retain the kinase domain of TRK proteins; TPM3 (fusion partner, N-terminal part of tropomyosin alpha-3, P06753); endogenous in cells; host or cells: KM12 colon cancer cells; the other entry of the earlier key: TPM3 (P06753, Tropomyosin alpha-3 chain)
T2 sequence (P04629 with tags, fused parts or gaps): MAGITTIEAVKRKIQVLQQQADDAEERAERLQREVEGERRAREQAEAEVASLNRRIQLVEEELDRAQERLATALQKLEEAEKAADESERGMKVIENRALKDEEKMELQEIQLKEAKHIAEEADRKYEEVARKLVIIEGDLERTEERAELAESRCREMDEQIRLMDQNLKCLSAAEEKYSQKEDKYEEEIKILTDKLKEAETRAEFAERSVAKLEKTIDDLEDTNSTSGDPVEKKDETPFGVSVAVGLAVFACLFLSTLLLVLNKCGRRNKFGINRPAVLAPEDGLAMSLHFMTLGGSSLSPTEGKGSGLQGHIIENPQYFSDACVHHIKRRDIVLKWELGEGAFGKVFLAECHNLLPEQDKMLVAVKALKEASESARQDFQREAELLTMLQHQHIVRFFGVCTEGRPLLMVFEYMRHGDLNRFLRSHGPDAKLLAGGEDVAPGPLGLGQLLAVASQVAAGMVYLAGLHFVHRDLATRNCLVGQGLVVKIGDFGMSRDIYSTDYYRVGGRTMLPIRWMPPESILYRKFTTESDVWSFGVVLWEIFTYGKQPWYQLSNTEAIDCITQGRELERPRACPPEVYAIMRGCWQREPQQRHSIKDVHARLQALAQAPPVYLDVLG
Outline: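 KM12 colon cancer cells were treated with DMSO or compounds at 0.1–100 nM, 0.4–30 nM or other stated concentrations for 4, 8–16 or 16 h. RIPA lysates were BCA-normalized and resolved by SDS-PAGE. TPM3-TRKA was detected by chemiluminescent Western blot, with bands quantified by densitometry.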

[2] = system: KM12 subcutaneous xenograft tumors; assay: KM12 subcutaneous xenograft tumor growth; format: in vivo, Athymic nude mice; settings: 10-20 mg/kg qd or bid via oral gavage (FIG. 15A-15B)
Description: Athymic nude mice bearing KM12 subcutaneous xenograft tumors at the right flank were intraperitoneally treated with vehicle or 25 mg/kg CPD-060 once per day (qd), twice per day (bid), or once every two days (q2d). Tumor volumes were assessed every two days and expressed as length×width×width/2. Body weights of experimental mice were also measured to assess the toxicity of compounds.
Athymic nude mice bearing KM12 subcutaneous xenograft tumors at the right flank were treated with vehicle, 10-20 mg/kg TR-181 or TR-198 once per day (qd), or twice per day (bid) via oral gavage. Tumor volumes were assessed every two days and expressed as length×width×width/2. Body weights of experimental mice were also measured to assess the toxicity of compounds.
Mice bearing KM12 xenograft tumors were treated with vehicle, TR-231 or TR-275 orally at 40 mg/kg, twice per day for 14 days. Tumor sizes were measured every two days and presented as volume=(length×width×width)/2. […]
All animal experiments were performed under protocols approved by the Institutional Animal Care and Use Committee (IACUC) of Cullgen. […] Tumor volumes were calculated as […]. For tumor growth assays, tumor sizes and body weight of mice were measured every 2 days. For pharmacodynamic studies, the levels of TPM3-TPKA in xenograft tumors was determined following a single dose of drug administration. […]

KM12 cells = assay: KM12 cell viability (CellTiter-Glo); format: cell-based; settings: Homo sapiens, 72 h; KM12 cell viability, CellTiter-Glo, three days treatment; read-out: IC50
Outline: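 KM12 cells seeded at 5000 per well in RPMI 1640 + 10% FBS and exposed 3 days to serial dilutions (11-point 3-fold, 8-point 3-fold from 1000 nM, or 12-point 2-fold). Viability by CellTiter-Glo; IC50 from least-squares nonlinear regression.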

TRK-fusions = settings: phase 2 results, cited from earlier work

T1 sequence (P04629 33-796): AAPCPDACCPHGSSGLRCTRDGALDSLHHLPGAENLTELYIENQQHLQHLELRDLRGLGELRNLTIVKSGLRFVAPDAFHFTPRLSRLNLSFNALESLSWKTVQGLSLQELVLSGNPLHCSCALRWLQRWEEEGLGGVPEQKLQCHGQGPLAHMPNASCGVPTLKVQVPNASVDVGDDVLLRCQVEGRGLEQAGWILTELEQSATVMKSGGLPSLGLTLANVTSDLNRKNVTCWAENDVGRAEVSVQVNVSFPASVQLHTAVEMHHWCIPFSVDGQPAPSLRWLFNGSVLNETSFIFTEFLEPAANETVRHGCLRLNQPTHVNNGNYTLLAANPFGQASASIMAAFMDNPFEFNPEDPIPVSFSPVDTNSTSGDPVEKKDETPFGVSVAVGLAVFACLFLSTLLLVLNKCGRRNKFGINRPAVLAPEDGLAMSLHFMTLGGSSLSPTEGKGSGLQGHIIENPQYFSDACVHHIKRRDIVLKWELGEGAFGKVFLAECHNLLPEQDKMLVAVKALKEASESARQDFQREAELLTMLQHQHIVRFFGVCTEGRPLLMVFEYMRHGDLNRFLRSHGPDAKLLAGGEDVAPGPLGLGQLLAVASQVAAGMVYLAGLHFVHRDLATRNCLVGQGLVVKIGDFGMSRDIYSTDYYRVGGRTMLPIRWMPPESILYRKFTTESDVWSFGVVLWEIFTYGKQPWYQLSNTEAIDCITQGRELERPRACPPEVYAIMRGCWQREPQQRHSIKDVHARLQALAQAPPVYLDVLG

| Compound | percent degradation of TPM3-TRKA protein at 0.01 µM (TPM3-TRKA fusion protein) [%] | in vivo anti-tumor activity (tumor volume) [2] | IC50 (KM12 cells) [nM] | bioavailability [1] [%] | other results |
| --- | --- | --- | --- | --- | --- |
| O=C1CCC(N2C(=O)c3ccc(NCC(=O)N4CCN(c5cccc(-c6cnc7ccc(N8CCC[C@@H]8c8cccc(F)c8)nn67)n5)CC4)cc3C2=O)C(=O)N1 (stereo partly drawn) [TR-123, 2-(2,6-dioxopiperidin-3-yl)-5-((2-(4-(6-(6-((R)-2-(3-fluorophenyl)pyrrolidin-1-yl)imidazo[1,2-b]pyridazin-3-yl)pyridin-2-yl)piperazin-1-yl)-2-oxoethyl)amino) isoindoline-1,3-dione] | > 80 |  |  |  | TRKA protein levels (wildtype TRKA protein; dose range (FIG. 8)): reduced TRKA protein levels in a concentration-dependent manner; TRKA degradation in combination with MG-132, Bortezomib, MLN4924 or Pomalidomide (wildtype TRKA protein; single dose (FIG. 9)): compromised; plasma exposure ([1]; single 20 mg/kg intraperitoneal injection, over 12 hours, average of 3 animals (FIG. 11)): good plasma exposure; TRKA protein levels (TPM3-TRKA fusion protein; KM12 cells, dose range (FIG. 8)): reduced TRKA protein levels in a concentration-dependent manner; TRKA degradation in combination with MG-132, Bortezomib, MLN4924 or Pomalidomide (TPM3-TRKA fusion protein; KM12 cells, single dose (FIG. 9)): compromised |
| O=C1CCC(N2C(=O)c3ccc(NCCN4CCN(c5cccc(-c6cnc7ccc(N8CCC[C@@H]8c8cccc(F)c8)nn67)n5)CC4)cc3C2=O)C(=O)N1 (stereo partly drawn) [TR-181, 2-(2,6-dioxopiperidin-3-yl)-5-((2-(4-(6-(6-((R)-2˜ (3-fluorophenyl)pyrrolidin-1-yl)imidazo[1,2-b]pyridazin-3-yl)pyridin-2-yl)piperazin-1-yl)ethyl)amino) isoindoline-1,3-dione] | > 80 | significant in vivo anti-tumor activity | 2.9 |  |  |
| O=C1CCC(N2C(=O)c3ccc(N4CC(CN5CCN(c6cccc(-c7cnc8ccc(N9CCC[C@@H]9c9cccc(F)c9)nn78)n6)CC5)C4)cc3C2=O)C(=O)N1 (stereo partly drawn) [TR-198, 2-(2,6-dioxopiperidin-3-yl)-5-(3-((4-(6-(6-((R)-2-(3-fluorophenyl)pyrrolidin-1-yl)imidazo[1,2-b]pyridazin-3-yl)pyridin-2-yl)piperazin-1-yl)methyl)azetidin-1-yl)isoindoline-1,3-dione] | > 80 | significant in vivo anti-tumor activity |  |  |  |
| O=C1CCC(N2C(=O)c3ccc(N4CC(CN5CCN(c6ccc(C(=O)Nc7n[nH]c8ccc(Cc9cc(F)cc(F)c9)cc78)c(NC7CCOCC7)c6)CC5)C4)cc3C2=O)C(=O)N1 (stereo not shown) [TR-231] | > 80 |  | 3 | ~48 |  |
| O=C1CCC(N2C(=O)c3ccc(N4CC(N5CCN(c6ccc(C(=O)Nc7n[nH]c8ccc(Cc9cc(F)cc(F)c9)cc78)c(NC7CCOCC7)c6)CC5)C4)cc3C2=O)C(=O)N1 (stereo not shown) [TR-275, N-(5-(3,5-difluorobenzyl)-1H-indazol-3-yl)-4-(4-(1-(2-(2,6-dioxopiperidin-3-yl)-1,3-dioxoisoindolin-5-yl)azetidin-3-yl)piperazin-1-yl)-2-((tetrahydro-2H-pyran-4-yl)amino)benzamide] | 50 to 80 |  | 8.9 | ~27 |  |
| O=C(Nc1cnn2ccc(N3CCC[C@@H]3c3cc(F)ccc3F)nc12)N1CC[C@H](O)C1 [larotrectinib] |  |  |  |  | patient remained progression-free at 1 year (TRK-fusions; at 1 year): 55%; patients responded to the therapy (TRK-fusions; patients with TRK-fusions): 75% |

— patent US12410171B2, “Tropomyosin receptor kinase (TRK) degradation compounds and methods of use” (Cullgen (Shanghai), Inc., priority 2020, dated 2025)
